# According to patent publication US9045484B2, “Inhibitors of the BMP signaling pathway” (The Brigham and Women's Hospital, Inc., priority 2008, dated 2015):
# Read-outs that look alike come from different tables or passages of the source.
# Tests used:
# [1] = system: turpentine-challenged C57BL/6 mice; assay: Turpentine-induced hypoferrinemia, 24 h after one turpentine injection; type: in vivo
# Experimental: Mice received a subcutaneous injection of turpentine, and 24 h later, serum was obtained for measurement of iron concentrations. Compound 13 (3 mg/kg) or vehicle was administered ip concurrently with turpentine and 12 hours later.
# [2] = system: turpentine-challenged C57BL/6 mice; details: 3 mg/kg ip every 12 h, weekly turpentine for 3 weeks
# Experimental: To model the anemia of inflammation, C57BL/6 mice were studied in which chronic inflammation was induced by weekly subcutaneous injections of turpentine.
# Mice received a subcutaneous injection of 100 μL turpentine weekly for 3 weeks. Compound 13 or vehicle (3 mg/kg) was administered ip beginning with the first turpentine injection and every 12 h thereafter. Vehicle treated mice without turpentine injection were studied as controls. One week after the final turpentine dose, blood was drawn for Hb levels, mean corpuscular volume (MCV), and absolute neutrophil counts.
# [3] = Plasma pharmacokinetics after single bolus intraperitoneal administration; type: in vivo, C57B16 mice; details: IP 3 mg/kg
# Experimental: The pharmacokinetics of 13.HCl was evaluated after a single bolus intraperitoneal administration (3 mg/kg) in male and female C57B16 mice on a commercial rodent diet and water ad libitum prior to the study. Compound plasma levels were determined by LC-MS/MS and the pharmacokinetic parameters were determined using WinNonlin software (Pharsight Co., Mountain View, Calif.). Dosing solutions (0.6 mg/mL) were prepared in a vehicle comprising 2% hydropropyl-β-cyclodextrin in phosphate-buffered saline (PBS). Each time point (pre-dose, 5, 10, 15, 30, 60, 120, 240, 480, 1440 min post-dose) was dosed as N=3/sex. Each blood sample was collected via cardiac puncture after euthanasia with CO2 and placed in chilled tubes containing sodium heparin. Samples were centrifuged at 4° C. at 13,000 rpm for 5 min followed by extracted with acetonitrile and then analyzed.
# The pharmacokinetics of 44.HCl and 37.HCl were evaluated after a single bolus intraperitoneal administration (3 mg/kg) in male C57B16 mice on a commercial rodent diet and water ad libitum prior to the study. Compound plasma levels were determined by LC-MS/MS and the pharmacokinetic parameters were determined using WinNonlin software (Pharsight Co., Mountain View, Calif.). Dosing solutions (0.6 mg/mL) were prepared in a vehicle comprising 2% hydropropyl-β-cyclodextrin in phosphate-buffered saline (PBS). Each time point (pre-dose, 5, 10, 15, 30, 60, 120, 240, 480, 1440 min post-dose) was dosed as
# N=3/sex. Each blood sample was collected via cardiac puncture after euthanasia with CO2 and placed in chilled tubes containing sodium heparin. Samples were centrifuged at 4° C. at 13,000 rpm for 5 min followed by extracted with acetonitrile and then analyzed.
# hepcidin [4] = assay: Turpentine-induced hepatic hepcidin expression time course; type: in vivo, C57BL/6 mice; details: 3 mg/kg IP every 12 h; compared to vehicle; FIG. 13
# hepcidin [5] = assay: Hepatic hepcidin expression in the steady state after 30 days treatment; type: in vivo, C57BL/6 mice; details: 3 mg/kg/d IP for 30 days; FIG. 16
# Experimental: Ten-week-old male C57BL/6 mice fed a normal iron replete diet were treated chronically with compound 13 (3 mg/kg/d IP) or vehicle for 30 days, and hepatic hepcidin mRNA levels were measured by quantitative RT-PCR.
# [6] = system: constitutively-active mutant form of ALK2
# [7] = Microsomal stability in pooled mouse liver microsomes; type: in vitro ADME; details: 0.5 mg/mL microsome protein, 1 mM NADPH
# Experimental: Test compound (3 μM final concentration) along with 0.5 mg/mL microsome protein and 1 mM NADPH was incubated for 0, 5, 15, 30 and 60 min. Incubation of test compound and microsomes in the absence of NADPH served as a negative control. The samples were quenched with methanol and centrifuged for 20 min at 2500 rpm to precipitate proteins. Sample supernatants were analyzed (N=3) by LC/MS. The ln peak area ratio (compound peak area/internal standard peak area) was plotted against time and the slope of the line determined to give the elimination rate constant [k=(−1)(slope)]. The half life (t1/2 in minutes) and the in vitro intrinsic clearance (CLint in μL/min/mg protein) values were calculated according to the following equations, where V=incubation volume in μL/mg protein: […]
# [8] = system: turpentine-treated C57BL/6 mice; assay: Established turpentine-induced anemia of inflammation (rescue); type: in vivo
# Experimental: After the establishment of anemia, treatment with either vehicle or compound 13 (3 mg/kg/d IP) is begun concurrently with an additional 3 weeks of weekly turpentine injections, to assess the potential for rescuing established turpentine-induced anemia of inflammation. […] Shaded areas indicate normative values in C57BL/6 mice for each parameter.
# PDGFR-mediated signaling = assay: PDGF-induced AKT phosphorylation, cellular ELISA in PaSMCs; type: cell-based, murine
# Experimental: To test the relative effects of dorsomorphin and structurally-related compounds upon PDGFR-mediated signaling, PDGF-induced AKT phosphorylation was measured by cellular ELISA via the detection of phospho-AKT in PaSMCs treated with compounds for 10 min. followed by PDGF for 30 min.
# [9] = system: BMP-induced phosphorylation of SMAD1/5/8; assay: BMP4-induced phosphorylation of SMAD1/5/8, cytoblot (cellular ELISA); type: cell-based, murine; details: Mus musculus; FIG. 1; approximate; read-out: functional IC50, BMP4-induced SMAD1/5/8 phosphorylation
# Experimental: Murine pulmonary artery smooth muscle cells were isolated, explanted and cultured as previously described (see […] et al. Am. J. Physiol. Lung Cell Mol. Physiol. 280:[…], 2001) and then grown to confluence in 96 well tissue culture plates. Cells were incubated in serum-free medium for 18 h, and then incubated with recombinant BMP2, BMP4, BMP6, BMP9, GDF5, TGF-β, or Activin A ligands (R&D Systems, Minneapolis, Minn.) at varying concentrations in duplicate for 20 minutes. […] Specificity for BMP-mediated signaling was determined separately using a modification of the cellular ELISA technique assaying for the activation of SMAD2 or SMAD3 via TGF-β, or Activin A. A corresponding IC50 was calculated for the effects of these compounds upon those signaling pathways.
smiles,measurement,setting,value
"c1ccc2c(-c3cnn4cc(-c5ccc(N6CCNCC6)cc5)cnc34)ccnc2c1 [Compound 13, 4-[6-(4-piperazin-1-ylphenyl)pyrazolo[1,5-a]pyrimidin-3-yl]quinoline]",turpentine-induced reduction in serum iron levels,"[1]; 3 mg/kg ip with turpentine and 12 hours later, FIG. 8",prevented turpentine-induced reduction in serum iron levels
same,hepatic hepcidin mRNA levels after turpentine,"[1]; two doses 3 mg/kg IP every 12 hours, FIG. 9",prevented elevation of hepatic hepcidin mRNA levels
same,hemoglobin (Hb) levels,[2]; FIG. 10,prevented the decline in Hb levels and MCV
same,mean corpuscular volume (MCV),[2]; FIG. 11,prevented the decline in Hb levels and MCV
same,absolute neutrophil counts,[2]; FIG. 12,did not affect the increase in absolute neutrophil counts
same,Tmax,"[3]; C57B16, mouse, female mice, read-out: tmax",< 5 min
same,Tmax,"[3]; C57B16, mouse, male mice, read-out: tmax",< 5 min
same,AUC∞,[3]; female mice,1030 ng·h/mL
same,Cmax,[3]; female mice,1290 nM
same,Tmax,[3]; female mice,< 5 min
same,t1/2,[3]; female mice,96 min
same,AUC∞,[3]; male mice,994 ng·h/mL
same,Cmax,[3]; male mice,1540 nM
same,Tmax,[3]; male mice,< 5 min
same,t1/2,[3]; male mice,96 min
same,hepatic hepcidin elevation after turpentine,hepcidin [4],effectively suppressed hepcidin elevation at 24-96 hours
same,basal hepatic hepcidin mRNA levels relative to vehicle-treated mice,hepcidin [5],40%
same,ectopic calcification and disability,"[6]; FOP mutant mice, 3 mg/kg ip twice daily, FIG. 14",prevented the ectopic calcification and disability
same,skeletal development,"[6]; wild type mice, 3 mg/kg BID",exhibited normal skeletal development
same,half-life at 3 μM,[7]; read-out: half-life (t1/2) in mouse liver microsomes,82 min
same,microsomal CLint at 3 μM,[7]; read-out: intrinsic clearance (CLint) in mouse liver microsomes,16.9 ± 5.6 µL/min/mg
same,blood hemoglobin,"[8]; 3 mg/kg/d IP for final 3 weeks of 6 weeks turpentine, FIG. 17",significant improvement
same,hematocrit,"[8]; 3 mg/kg/d IP for final 3 weeks of 6 weeks turpentine, FIG. 18",restoration of hematocrit to values within the normal range
same,mean corpuscular volume (MCV),"[8]; 3 mg/kg/d IP for final 3 weeks of 6 weeks turpentine, FIG. 19",restores MCV to low-normal levels
same,neutrophilia,[8]; FIG. 21,induced neutrophilia regardless of treatment with vehicle or compound 13
same,reticulocyte counts,"[8]; cotreatment for final 3 weeks of 6 weeks turpentine, FIG. 20",restores high-normal reticulocyte counts
same,selectivity for BMP signaling versus PDGF signaling,PDGFR-mediated signaling,improves upon the selectivity
same,IC50,"PDGFR-mediated signaling; Mus musculus, PASMC, compounds 10 min, then PDGF 30 min, FIG. 2, read-out: functional IC50, PDGF-induced AKT phosphorylation",~2000 nM
same,IC50,[9],5 to 10 nM
